Activity calls are given as the source filed them. The calls are words filed in the database; no cut-off is given here.
How the values were obtained:
MGC-803 [1] = assay: Inhibition of topoisomerase 2 purified from human MGC-803 cells assessed as decrease in relaxation of supercoiled pBR322 plasmid DNA at 100 uM using pBR322 plasmid DNA as substrate incubated for 30 mins by agarose gel electrophoresis; format: cell-free
HeLa = assay: Antiproliferative activity against human HeLa cells assessed as reduction in cell growth incubated for 48 hrs by MTT assay; format: functional, cell-based
MGC-803 [2] = assay: Antiproliferative activity against human MGC-803 cells assessed as reduction in cell growth incubated for 48 hrs by MTT assay; format: functional, cell-based; details: MGC-803, 48 h
[3] = biological target: T1, DNA topoisomerase 1 (Homo sapiens) (UniProt P11387); assay: Inhibition of human topoisomerase 1 assessed as decrease in relaxation of supercoiled pBR322 plasmid DNA at 100 uM using pBR322 plasmid DNA as substrate incubated for 30 mins by agarose gel electrophoresis
T1 sequence (whole entry): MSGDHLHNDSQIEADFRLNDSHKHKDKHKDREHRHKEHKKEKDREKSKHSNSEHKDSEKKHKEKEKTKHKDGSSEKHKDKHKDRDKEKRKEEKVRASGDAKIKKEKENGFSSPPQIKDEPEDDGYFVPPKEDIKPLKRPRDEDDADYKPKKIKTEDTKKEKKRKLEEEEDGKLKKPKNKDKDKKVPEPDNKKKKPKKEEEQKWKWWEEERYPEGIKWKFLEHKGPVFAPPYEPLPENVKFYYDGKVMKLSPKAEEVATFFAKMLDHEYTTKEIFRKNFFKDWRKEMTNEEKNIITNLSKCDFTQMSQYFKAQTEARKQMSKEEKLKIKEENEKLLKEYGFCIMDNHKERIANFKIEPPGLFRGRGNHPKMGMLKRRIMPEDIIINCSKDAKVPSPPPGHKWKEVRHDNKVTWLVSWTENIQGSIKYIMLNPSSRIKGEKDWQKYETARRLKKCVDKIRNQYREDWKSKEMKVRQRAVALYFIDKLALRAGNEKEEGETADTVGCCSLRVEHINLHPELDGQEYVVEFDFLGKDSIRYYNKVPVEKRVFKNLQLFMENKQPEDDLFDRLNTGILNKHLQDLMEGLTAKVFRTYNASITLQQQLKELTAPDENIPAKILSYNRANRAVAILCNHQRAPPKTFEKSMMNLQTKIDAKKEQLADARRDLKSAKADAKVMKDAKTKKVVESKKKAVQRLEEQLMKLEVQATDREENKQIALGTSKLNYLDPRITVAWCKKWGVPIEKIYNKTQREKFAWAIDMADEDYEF

MCF7 = assay: Antiproliferative activity against human MCF7 cells assessed as reduction in cell growth incubated for 48 hrs by MTT assay; format: functional, cell-based; details: MCF7, 48 h
[4] = Cytotoxicity against […] tumor cell line assessed as reduction in cell viability incubated for 48 hrs by MTT assay; details: L929, 48 h
BEL-7404 tumor cell line = assay: Antiproliferative activity against human Bel-7404 tumor cell line assessed as reduction in cell growth incubated for 48 hrs by MTT assay; format: functional, cell-based; details: BEL-7404, 48 h
MGC-803 [5] = assay: Inhibition of topoisomerase 2 purified from human MGC-803 cells assessed as decrease in relaxation of supercoiled pBR322 plasmid DNA at 20 uM using pBR322 plasmid DNA as substrate incubated for 30 mins by agarose gel electrophoresis; format: cell-free
MGC-803 [6] = assay: Induction of apoptosis in human MGC-803 cells assessed as early apoptotic cells at 20 uM incubated for 48 hrs by annexin V-FITC and PI staining based flow cytometry analysis (reference value: 2.54 %); format: functional
MGC-803 [7] = assay: Induction of apoptosis in human MGC-803 cells assessed as early apoptotic cells at 10 uM incubated for 48 hrs by annexin V-FITC and PI staining based flow cytometry analysis (reference value: 2.54 %); format: functional
MGC-803 [8] = assay: Induction of apoptosis in human MGC-803 cells assessed as viable cells at 10 uM incubated for 48 hrs by annexin V-FITC and PI staining based flow cytometry analysis (reference value: 94.47 %); format: functional; details: read-out: Activity
MGC-803 [9] = assay: Induction of apoptosis in human MGC-803 cells assessed as necrotic cells at 20 uM incubated for 48 hrs by annexin V-FITC and PI staining based flow cytometry analysis (reference value: 0.03 %); format: functional
MGC-803 [10] = assay: Induction of apoptosis in human MGC-803 cells assessed as late apoptotic cells at 10 uM incubated for 48 hrs by annexin V-FITC and PI staining based flow cytometry analysis (reference value: 2.96 %); format: functional
MGC-803 [11] = assay: Induction of apoptosis in human MGC-803 cells assessed as viable cells at 20 uM incubated for 48 hrs by annexin V-FITC and PI staining based flow cytometry analysis (reference value: 94.47 %); format: functional; details: read-out: Activity
MGC-803 [12] = assay: Induction of apoptosis in human MGC-803 cells assessed as necrotic cells at 10 uM incubated for 48 hrs by annexin V-FITC and PI staining based flow cytometry analysis (reference value: 0.03 %); format: functional
MGC-803 [13] = assay: Induction of cell cycle arrest in human MGC-803 cells assessed as S phase at 10 uM incubated for 48 hrs by PI staining based flow cytometry analysis (reference value: 43.6 %); format: functional
MGC-803 [14] = assay: Induction of cell cycle arrest in human MGC-803 cells assessed as G0/G1 phase at 10 uM incubated for 48 hrs by PI staining based flow cytometry analysis (reference value: 47.6 %); format: functional
[15] = Drug uptake in human MGC-803 cells at 10 uM incubated for 8 hrs by laser scanning confocal microscope; format: ADME, cell-based; details: mgc-803, 8 h
MGC-803 [16] = assay: Induction of cell cycle arrest in human MGC-803 cells assessed as G2/M phase at 10 uM incubated for 48 hrs by PI staining based flow cytometry analysis (reference value: 8.8 %); format: functional
MGC-803 [17] = assay: Induction of apoptosis in human MGC-803 cells assessed as late apoptotic cells at 20 uM incubated for 48 hrs by annexin V-FITC and PI staining based flow cytometry analysis (reference value: 2.96 %); format: functional
[18] = biological target: DNA topoisomerase 2-alpha (Homo sapiens) (UniProt P11388); assay: Poison activity at human topoisomerase 2alpha assessed as DNA cleavage by measuring linear DNA formation at 100 to 300 uM using supercoiled pBR322 DNA as substrate incubated for 30 mins by agarose gel electrophoresis method; details: dose 100-300 µM
DNA topoisomerase 2-alpha (Homo sapiens), sequence (P11388 whole entry): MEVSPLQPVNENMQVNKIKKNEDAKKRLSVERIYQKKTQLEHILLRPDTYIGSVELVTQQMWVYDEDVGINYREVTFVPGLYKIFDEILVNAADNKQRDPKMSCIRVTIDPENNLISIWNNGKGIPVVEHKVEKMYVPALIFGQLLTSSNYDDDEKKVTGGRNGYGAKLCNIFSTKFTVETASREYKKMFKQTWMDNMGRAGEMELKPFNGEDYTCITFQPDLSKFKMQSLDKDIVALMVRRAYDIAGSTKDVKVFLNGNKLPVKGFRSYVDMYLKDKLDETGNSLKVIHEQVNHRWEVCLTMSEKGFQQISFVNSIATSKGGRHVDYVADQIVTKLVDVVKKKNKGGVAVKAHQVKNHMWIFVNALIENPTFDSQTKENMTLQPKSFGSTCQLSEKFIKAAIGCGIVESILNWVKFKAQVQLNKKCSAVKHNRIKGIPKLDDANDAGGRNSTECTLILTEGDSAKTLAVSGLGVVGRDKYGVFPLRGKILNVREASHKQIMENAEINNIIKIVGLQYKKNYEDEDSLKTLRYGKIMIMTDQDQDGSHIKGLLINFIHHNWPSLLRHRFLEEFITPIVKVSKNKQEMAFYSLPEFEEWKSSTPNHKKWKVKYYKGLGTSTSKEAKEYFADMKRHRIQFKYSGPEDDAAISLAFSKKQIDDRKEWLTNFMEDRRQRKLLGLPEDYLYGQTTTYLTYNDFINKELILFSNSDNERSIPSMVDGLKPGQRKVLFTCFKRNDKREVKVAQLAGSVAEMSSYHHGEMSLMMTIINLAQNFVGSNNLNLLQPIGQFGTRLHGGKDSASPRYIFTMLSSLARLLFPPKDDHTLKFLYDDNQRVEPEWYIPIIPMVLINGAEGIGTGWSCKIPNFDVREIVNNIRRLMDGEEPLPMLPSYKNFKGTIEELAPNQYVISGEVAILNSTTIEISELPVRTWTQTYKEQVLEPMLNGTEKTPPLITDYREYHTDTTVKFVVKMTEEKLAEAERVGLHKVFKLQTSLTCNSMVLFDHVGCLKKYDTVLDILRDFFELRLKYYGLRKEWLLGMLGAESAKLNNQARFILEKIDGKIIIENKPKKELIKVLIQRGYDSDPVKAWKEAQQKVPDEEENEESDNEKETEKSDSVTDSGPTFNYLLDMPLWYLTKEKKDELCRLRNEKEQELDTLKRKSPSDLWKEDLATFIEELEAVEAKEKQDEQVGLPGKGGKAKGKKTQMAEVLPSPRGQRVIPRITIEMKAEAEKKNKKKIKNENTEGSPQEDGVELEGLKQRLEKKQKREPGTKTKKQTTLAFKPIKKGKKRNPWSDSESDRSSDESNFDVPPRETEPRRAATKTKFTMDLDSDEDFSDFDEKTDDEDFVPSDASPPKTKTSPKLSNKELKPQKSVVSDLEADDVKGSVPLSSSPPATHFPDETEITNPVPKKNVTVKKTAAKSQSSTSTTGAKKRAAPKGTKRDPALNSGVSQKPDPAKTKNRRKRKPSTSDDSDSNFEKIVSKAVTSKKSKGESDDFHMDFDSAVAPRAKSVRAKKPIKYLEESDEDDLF

Homo sapiens = species on record: Homo sapiens; assay: Inhibition of human topoisomerase 2 assessed as EtBr intercalation into plasmid DNA by converting relaxed DNA into supercoiled DNA at 100 to 300 uM incubated for 30 mins by agarose gel electrophoresis method; details: dose 100-300 µM

| SMILES | inhibition (MGC-803 [1]) | IC50 (HeLa) [µM] | IC50 (MGC-803 [2]) [µM] | inhibition [3] | IC50 (MCF7) [µM] | IC50 [4] [µM] | IC50 (BEL-7404 tumor cell line) [µM] | inhibition (MGC-803 [5]) | also measured |
| --- | --- | --- | --- | --- | --- | --- | --- | --- | --- |
| Cc1cccc2c1SCC1C2=NN(c2ccccc2)C1c1c[nH]c2ccccc12 (stereo unspecified) | Active | 37 | 28 | inactive | 38 | 189 | 57.3 |  |  |
| COc1cc([C@@H]2c3cc4c(cc3[C@@H](O[C@@H]3O[C@@H]5CO[C@@H](C)O[C@H]5[C@H](O)[C@H]3O)[C@H]3COC(=O)[C@H]23)OCO4)cc(OC)c1O [ETOPOSIDE] |  | 5.35 | 11.2 |  | 1.45 | 80.4 | 7.76 |  |  |
| Clc1ccc2c(c1)C1=NN(c3ccccc3)C(c3c[nH]c4ccc(Br)cc34)C1CS2 (stereo unspecified) |  | 35.1 | 29.3 | inactive | 37.1 | 154 | 32.1 |  |  |
| Fc1cccc2c1SCC1C2=NN(c2ccccc2)C1c1c[nH]c2ccccc12 (stereo unspecified) | Active | 31.6 | 31.1 | inactive | 35.7 | 158 | 36.2 | Active |  |
| COc1ccc2c(c1)C1=NN(c3ccccc3)C(c3c[nH]c4ccccc34)C1CS2 (stereo unspecified) | Active | > 120 | 36.4 | inactive | > 120 | 120 | > 120 |  |  |
| Cn1cc(C2C3CSc4ccc(Cl)cc4C3=NN2c2ccccc2)c2ccccc21 (stereo unspecified) |  | 48.7 | 33.1 | inactive | 51.1 | 262 | 36.2 |  |  |
| Fc1ccc2c(c1)C1=NN(c3ccccc3)C(c3c[nH]c4ccccc34)C1CS2 (stereo unspecified) | Active | 50 | 39.3 | inactive | 37.8 | 175 | 50.2 | Active |  |
| Clc1ccc2c(c1)C1=NN(c3ccccc3)C(c3c[nH]c4ccccc34)C1CS2 (stereo unspecified) | Active | 38.2 | 15.4 | inactive | 26.1 | 160 | 42.9 | Active | Activity (MGC-803 [6]): 8.17%; Activity (MGC-803 [7]): 12.32%; viability at 10 µM (MGC-803 [8]): 69.9%; Activity (MGC-803 [9]): 2.18%; Activity (MGC-803 [10]): 17.02%; viability at 20 µM (MGC-803 [11]): 36.9%; Activity (MGC-803 [12]): 0.73%; Activity (MGC-803 [13]): 25.3%; Activity (MGC-803 [14]): 38.1%; Drug uptake [15]: Active; Activity (MGC-803 [16]): 36.6%; Activity (MGC-803 [17]): 52.74% |
| Cc1cc(C)c2c(c1)C1=NN(c3ccccc3)C(c3c[nH]c4ccccc34)C1CS2 (stereo unspecified) |  | 29.2 | 26.5 | inactive | 27 | 134 | 23.7 |  |  |
| Cc1ccc(C)c2c1SCC1C2=NN(c2ccccc2)C1c1c[nH]c2ccccc12 (stereo unspecified) | Active | 39.7 | 35.6 | inactive | 37.7 | 183 | 37.5 | Active |  |
| Clc1cc(Cl)c2c(c1)C1=NN(c3ccccc3)C(c3c[nH]c4ccccc34)C1CS2 (stereo unspecified) | Active | 25 | 20.5 | inactive | 25.6 | 105 | 21 | Active | Activity (MGC-803 [6]): 12.17%; Activity (MGC-803 [7]): 4.92%; viability at 10 µM (MGC-803 [8]): 89.6%; Activity (MGC-803 [9]): 2.54%; Activity (MGC-803 [10]): 4.99%; viability at 20 µM (MGC-803 [11]): 49.2%; inhibition [18]: inactive; inhibition (Homo sapiens): inactive; Activity (MGC-803 [12]): 0.5%; Activity (MGC-803 [13]): 25.4%; Activity (MGC-803 [14]): 49.7%; Drug uptake [15]: Active; Activity (MGC-803 [16]): 24.9%; Activity (MGC-803 [17]): 36.06% |
| Cc1ccc2c(c1)C1=NN(c3ccccc3)C(c3c[nH]c4ccccc34)C1CS2 (stereo unspecified) | Active | 36.4 | 21.9 | inactive | 68 | 158 | > 120 | Active |  |
| Cc1cc2c(cc1F)C1=NN(c3ccccc3)C(c3c[nH]c4ccccc34)C1CS2 (stereo unspecified) | Active | 41.1 | 27.8 | inactive | 47.8 | 150 | 61.9 |  |  |
| Clc1cc2c(cc1Cl)C1=NN(c3ccccc3)C(c3c[nH]c4ccccc34)C1CS2 (stereo unspecified) | Active | 27.4 | 27.1 | inactive | 72.8 | 164 | > 120 | Active |  |

— ChEMBL document CHEMBL4680270, “Synthesis and biological evaluation of novel pyrazoline derivatives containing indole skeleton as anti-cancer agents targeting topoisomerase II” (Eur J Med Chem, 2020)
